Reference: paper PMC12736958 (Pharmaceutics, 2025)
Converted amounts (≈) assume the structure as drawn. “And” between values parts separate entries of the source, which are not always exact repeats. Identical values can stand only once. Like-named read-outs stand apart in the source and are kept apart here.

Tests used:
[1] = in vivo pharmacokinetic study in rats; set-up: species or system Sprague-Dawley (SD) rats; details: rat; for plasma concentration of Cur, individual animals: Rat1-Rat5
Experimental: Male Sprague-Dawley (SD) rats (200 ± 20 g) were supplied by SPF Biotechnology Co., Ltd. (Beijing, China) and housed under standard laboratory conditions throughout the study. All animals were housed in a controlled environment (22 ± 2 °C, 55 ± 10% humidity) under a 12/12 h light/dark cycle, with free access to a standard laboratory rodent diet and water. A 12 h fasting period was implemented prior to the experiment, with water permitted ad libitum. All animal procedures were performed in strict accordance with protocols approved by the Biological and Medical Ethics Committee of Minzu University of China.
After fasting for 12 h (with free access to water), SD rats (n = 25) were randomly divided into five groups (n = 5 per group). Group 1: crystalline Cur (i.v., dissolved in saline with 5% DMSO). Group 2: crystalline Cur (p.o., suspended in 0.5% CMC-Na). Group 3: Cur/P188 ASD (1:8, w/w; p.o.). Group 4: Cur/P188/TW80 ASD (1:8:1, w/w/w; p.o.). Group 5: Cur/P188/SLS ASD (1:8:1, w/w/w; p.o.). Group 1 received the formulation via tail vein injection, while Groups 2–5 were suspended in water (pH 7.0) and administered orally by gavage at a Cur-equivalent dose of 40 mg/kg. Blood samples (0.2 mL) were collected from each rat at 4, 7, 10, 20, and 30 min, and 1, 2, 4, and 24 h post-dosing. Plasma was separated by centrifugation (5000 rpm, 5 min, 4 °C) and stored at −80 °C until analysis.
Cur was extracted from 50 μL of plasma using 600 μL of ethyl acetate and quantified by LC-MS/MS, with diclofenac sodium (20 μL, 200 ng/mL) serving as the internal standard. Blank plasma was obtained from a separate control group (n = 5) that received water only. Analysis of these blank samples confirmed the absence of significant matrix interference, thereby validating the analytical method.
Cur quantification in cellular and rat plasma samples was carried out using a SCIEX QTRAP® 5500 LC-MS/MS system coupled with a SCIEX ExionLC^TM AC system (AB SCIEX, Framingham, MA, USA).
Separation was achieved on an Acquity UPLC® BEH C18 column (100 × 2.1 mm, 1.7 μm; Waters) maintained at 40 °C. The mobile phase consisted of (A) 0.1% formic acid in water and (B) acetonitrile (ACN), delivered at a flow rate of 0.14 mL/min with the following gradient program: 10% B (0–1.0 min), increased to 95% B (1.0–9.0 min), and returned to 10% B (9.0–12.0 min). The injection volume was 5 μL. The retention times were approximately 4.85 min for Cur and 6.70 min for diclofenac sodium, used as the internal standard (IS).
Mass spectrometric detection was performed using an IonDrive^TM Turbo V ion (SCIEX, Framingham, MA, USA) source operating in negative electrospray ionization (ESI) mode. Quantification was conducted via multiple reaction monitoring (MRM) at m/z 367.1→133.9 for Cur, and m/z 294.1→250.0 for diclofenac sodium (IS). The assay was linear over the concentration range of 2-500 ng/mL (R^2 > 0.999). All data were acquired in triplicate (n = 3) and processed using MultiQuant software version 3.0.2 (AB SCIEX).
Pharmacokinetic parameters were calculated using non-compartmental analysis with DAS 2.0 software (Boying Corporation, Beijing, China). Data analysis was performed using GraphPad Prism 10.1.2 software. The result is expressed as mean ± standard deviation (SD). For pairwise comparisons between groups, t-tests were conducted. For multiple group comparisons, one-way analysis of variance (ANOVA) was performed, followed by Tukey’s post hoc test for multiple comparisons. Prior to ANOVA, the assumptions of normality and homogeneity of variances were verified using the Shapiro–Wilk test and Bartlett’s test, respectively. p < 0.05 indicates statistically significant differences.

[2] = equilibrium solubility of crystalline Cur in excipient solutions; format: physicochemical; details: read-out: equilibrium solubility (Cur con.)
Experimental: Excess crystalline Cur was suspended in each solution, vortexed (1 min), sonicated (10 min), and incubated (37 °C, 24 h). After incubation, suspensions were filtered (0.22 μm), and Cur concentration in the filtrate was quantified using HPLC/UV-Vis (HPLC/UV-Vis Method section). All experiments were performed in quadruplicate (n = 4).
Cur content in in vitro dissolution samples was quantified using a Waters 2695 Alliance HPLC system (Waters Corporation, Milford, MA, USA) equipped with a Waters 2998 photodiode array (PDA) detector. Separation was performed on an XBridge® C18 column (4.6 × 250 mm, 5.0 μm; Waters) maintained at 25 °C. The mobile phase, composed of water and methanol (80:20, v/v), was delivered isocratically at a flow rate of 1.0 mL/min. The injection volume was 10 μL, and detection was performed at 430 nm, and Cur eluted at approximately 4.80 min. […] All data were acquired in triplicate (n = 3) and processed using Empower®3 Software (Waters).

[3] = male, Sprague-Dawley, plasma, oral (o.p.), 40 mg/kg Cur-equivalent

- Cmax [1, 3]: 2.4 ± 0.4 ng/mL
- Tmax [1, 3]: 0.2 h
- half-life [1, 3]: 1.8 ± 0.4 h
- MRT last ([1]; male, Sprague-Dawley, plasma, oral (o.p.), 40 mg/kg Cur-equivalent, read-out: MRT(0–24)): 6.3 ± 2 h
- bioavailability ([1]; male, Sprague-Dawley, plasma, oral, 40 mg/kg, oral 40 mg/kg relative to intravenous administration, read-out: F (absolute oral bioavailability)): ~1%
- concentration at 0.12 h ([1]; male, Sprague-Dawley, plasma, po, 40 mg/kg, oral (o.p.), 40 mg/kg, 0.12 h, Rat1-Rat5, read-out: plasma concentration of Cur, individual animals): 2.6 ng/mL
- concentration at 0.17 h ([1]; male, Sprague-Dawley, plasma, po, 40 mg/kg, oral (o.p.), 40 mg/kg, 0.17 h, Rat1-Rat5, read-out: plasma concentration of Cur, individual animals): 2.8 ng/mL
- F (absolute oral bioavailability) ([1]; oral 40 mg/kg relative to intravenous administration, 40 mg/kg): 0.97%
- solubility thermodynamic at 24 h ([2]; aqueous P188/SLS solution (8 mg/mL + 1 mg/mL), pH 7, aqueous with cosolvent or surfactant or cyclodextrin, thermodynamic from solid, P188/SLS 8 mg/mL + 1 mg/mL in water, 37 °C): 8.5 µg/mL
- solubility thermodynamic at 24 h ([2]; aqueous P188/TW80 solution (8 mg/mL + 1 mg/mL), pH 7, aqueous with cosolvent or surfactant or cyclodextrin, thermodynamic from solid, P188/TW80 8 mg/mL + 1 mg/mL in water, 37 °C): 10.3 µg/mL
- solubility thermodynamic at 24 h ([2]; aqueous P188 solution (8 mg/mL), pH 7, P188 8 mg/mL in water, 37 °C): < 0.1 µg/mL
- solubility thermodynamic at 24 h ([2]; aqueous SLS solution (1 mg/mL), pH 7, SLS 1 mg/mL in water, 37 °C): < 0.1 µg/mL
- solubility thermodynamic at 24 h ([2]; aqueous TW80 solution (1 mg/mL), pH 7, aqueous with cosolvent or surfactant or cyclodextrin, thermodynamic from solid, TW80 1 mg/mL in water, 37 °C): 9.1 µg/mL (≈ 24.7 µM)
- solubility thermodynamic at 24 h ([2]; thermodynamic from solid, pure water, pH 7.0, 37 °C, filtered 0.22 μm): < 0.1 µg/mL
Structure (SMILES): COc1cc(/C=C/C(=O)CC(=O)/C=C/c2ccc(O)c(OC)c2)ccc1O [Crystalline Cur, Curcumin]
- plasma concentration of Cur, individual animals ([1]; oral (o.p.), 40 mg/kg, 0.07 h): 1.7 ng/mL and 1.4 ng/mL (2×) and 0.7 ng/mL and 1.1 ng/mL
- plasma concentration of Cur, individual animals ([1]; oral (o.p.), 40 mg/kg, 0.12 h): 2.6 ng/mL and 2.1 ng/mL and 1.6 ng/mL and 1.9 ng/mL
- plasma concentration of Cur, individual animals ([1]; oral (o.p.), 40 mg/kg, 0.17 h): 2.8 ng/mL and 2.5 ng/mL and 2.1 ng/mL and 2.0 ng/mL
- plasma concentration of Cur, individual animals ([1]; oral (o.p.), 40 mg/kg, 0.33 h): 2.5 ng/mL and 2.1 ng/mL and 2.0 ng/mL and 1.5 ng/mL and 1.0 ng/mL
- plasma concentration of Cur, individual animals ([1]; oral (o.p.), 40 mg/kg, 0.5 h): 2.2 ng/mL and 1.4 ng/mL and 1.2 ng/mL (2×) and 0.542 ng/mL
- plasma concentration of Cur, individual animals ([1]; oral (o.p.), 40 mg/kg, 1 h): 1.4 ng/mL and 0.7 ng/mL and 0.845 ng/mL and 0.9 ng/mL and 0.369 ng/mL
- plasma concentration of Cur, individual animals ([1]; oral (o.p.), 40 mg/kg, 2 h): 0.64 ng/mL and 0.9 ng/mL and 0.5 ng/mL and 0.7 ng/mL and 0.2 ng/mL
- plasma concentration of Cur, individual animals ([1]; oral (o.p.), 40 mg/kg, 4 h): 0.256 ng/mL and 0.433 ng/mL and 0.228 ng/mL and 0.35 ng/mL and 0.125 ng/mL
- plasma concentration of Cur, individual animals ([1]; oral (o.p.), 40 mg/kg, 24 h): 0.08 ng/mL and 0.056 ng/mL and 0.2 ng/mL and 0.112 ng/mL and 0.1 ng/mL
